Results: patent publication US20180161310A1, “COMPOUNDS AND METHODS FOR THE TREATMENT OF NEUROLOGICAL DISORDERS” (Teleos Therapeutics, LLC, priority 2016, published 2018)
Where “and” joins values, the source holds several entries; their conditions need not be identical. Equal values may be shown once.

Assays:
human KCC2 = biological target: T1, human KCC2 (Homo sapiens, UniProt Q9H2X9); assay: Thallium flux assay in HEK293 cells transiently transfected with human KCC2; type: cell-based; settings: HEK293 cells over-expressing human KCC2
T1 construct: expressed in transfected cells; host or cells: HEK293
T1 sequence (Q9H2X9 1-1139): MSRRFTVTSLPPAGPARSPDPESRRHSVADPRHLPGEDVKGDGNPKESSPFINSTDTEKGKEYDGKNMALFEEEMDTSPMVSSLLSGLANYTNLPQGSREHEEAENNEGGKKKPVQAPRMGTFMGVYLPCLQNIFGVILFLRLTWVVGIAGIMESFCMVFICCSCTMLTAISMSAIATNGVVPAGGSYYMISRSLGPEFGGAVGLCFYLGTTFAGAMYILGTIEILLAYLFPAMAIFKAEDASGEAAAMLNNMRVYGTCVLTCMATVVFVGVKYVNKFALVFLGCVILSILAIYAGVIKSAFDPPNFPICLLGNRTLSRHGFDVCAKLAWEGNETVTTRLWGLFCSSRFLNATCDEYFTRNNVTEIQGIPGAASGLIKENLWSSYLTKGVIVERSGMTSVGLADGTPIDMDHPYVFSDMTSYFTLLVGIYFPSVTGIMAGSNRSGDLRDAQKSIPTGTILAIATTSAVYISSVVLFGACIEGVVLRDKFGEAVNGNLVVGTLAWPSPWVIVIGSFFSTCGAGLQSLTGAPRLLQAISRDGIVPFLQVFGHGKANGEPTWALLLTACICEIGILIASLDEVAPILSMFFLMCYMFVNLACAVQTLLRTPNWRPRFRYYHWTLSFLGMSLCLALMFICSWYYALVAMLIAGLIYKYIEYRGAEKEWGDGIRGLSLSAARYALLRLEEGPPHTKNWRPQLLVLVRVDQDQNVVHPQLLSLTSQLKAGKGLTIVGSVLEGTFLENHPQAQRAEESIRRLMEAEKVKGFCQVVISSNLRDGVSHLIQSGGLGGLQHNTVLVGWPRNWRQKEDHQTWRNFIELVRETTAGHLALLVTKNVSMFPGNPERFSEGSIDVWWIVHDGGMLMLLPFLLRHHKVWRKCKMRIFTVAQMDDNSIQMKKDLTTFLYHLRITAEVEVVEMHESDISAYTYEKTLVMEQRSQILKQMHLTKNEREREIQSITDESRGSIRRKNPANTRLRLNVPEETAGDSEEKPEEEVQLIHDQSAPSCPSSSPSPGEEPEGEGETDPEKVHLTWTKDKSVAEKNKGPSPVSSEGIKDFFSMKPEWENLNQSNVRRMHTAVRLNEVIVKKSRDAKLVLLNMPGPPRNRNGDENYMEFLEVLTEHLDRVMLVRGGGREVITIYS
Method: Phenotype-based screens, as described herein, are high-content and make use of complex behaviors to identify novel modulators, which may function through various mechanisms. Thus, hits identified in the suppressor screens described herein may or may not act directly on KCC2. To test whether the three hit compounds directly alter the activity of the transporter, thallium flux assays were performed in HEK293 cells transiently transfected with human KCC2 in order to measure the influx rate of KCC2 activity (see, e.g., Appendix B).

zebrafish larvae = type: in vivo
Source text: In an effort to determine how pharmacological inhibition of KCC2 affects zebrafish behaviors, 7 days post-fertilization (dpf) zebrafish larvae can be treated with two analogs of the selective KCC2 inhibitor, VU0463271 and VU0240551, and their behavioral responses in a battery of behavioral assays can be assessed. These behavioral assays can include a series of visual and acoustic stimuli presented to larval zebrafish in various contexts and combinations to elicit robust and reproducible patterns of activity. For example, behavioral assays can include two acoustic-stimulus-response (ASR1 and ASR2) assays, six visual-stimulus-response (VSR1-VSR6) assays, and three assays that combine acoustic and visual stimulus responses (AVSR1-AVSR3). Together, such a battery of behavioral assays use six stimuli, including red light (600 nm), blue light (420 nm), violet light (405 nm), green light (525 nm), low-intensity sound (60 dB) and high-intensity sound (70 dB). Behavioral responses of the larval zebrafish can be measured by a motion index (MI) that quantifies the motor activity of at least about 8 zebrafish larvae in each well of a 96-well plate.
Referring to FIGS. 1A-1B, zebrafish behavioral profiles can include a battery of individual behavioral assays labeled ASR1, AVSR1, ASR2, VSR1, VSR2, VSR3, VSR4, AVSR2, VSR5, AVSR3, and VSR6, as described herein. These behavioral assays can be combined to form a Motion Index (MI), which is a quantification of the motor activity of at least about 8 zebrafish larvae in each well of a 96-well plate. As shown in the representative images of FIGS. 1A-1B, zebrafish larvae were treated with DMSO (control), VU0463271 (FIG. 1A), or pentylentetrazol or PTZ (FIG. 1B).
Treatment with increasing doses of VU0463271 induced a unique and dose-dependent profile of behavioral responses, detectable at 2.5 μM and 5 μM. […] This relatively low concentration of VU0463271 elicited a reproducible behavioral profile with altered sensitivity of the fish larvae to specific combinations of stimuli. […] The increased MI in the AVSR1 and AVSR3 assays due to VU0463271 treatment reflects a seizure-like hyperexcitability in the larval fish.
Additionally, seizures have been induced in 7 dpf zebrafish larvae using pentylentetrazol (PTZ) treatment, and motor and electroencephalographic (EEG) responses were consistent with seizure phenotypes.

Compound	rate of 10 mM [K+]o-induced thallium influx (KCC2-mediated flux) (human KCC2)	MI in the ASR2 and VSR assays (zebrafish larvae; 2.5 μM)	behavioral responses in the AVSR1 and AVSR3 assays (zebrafish larvae; 2.5 μM, seizure-like hyperexcitability)	effect on MI along the assay battery (zebrafish larvae; 10 μM, very low MI)	concentration at which the dose-dependent profile of behavioral responses was detectable (zebrafish larvae; 7 dpf larvae)
Cc1csc(N(C(=O)CSc2ccc(-c3ccccc3)nn2)C2CC2)n1 [VU0463271, N-Cyclopropyl-N-(4-methyl-2-thiazolyl)-2-[(6-phenyl-3-pyridazinyl)thio]acetamide]	significantly reduced	reduced	increased	sedative effect	2.5 µM and 5 µM
CCN1C(=O)C=CC1=O [N-ethylmaleimide]	significantly increased	–	–	–	–
